Assay results from ChEMBL document CHEMBL1127662, “3-Alkoxybenzo[b]thiophene-2-carboxamides as inhibitors of neutrophil-endothelial cell adhesion” (J Med Chem, 1994).

What follows are compounds tested on HUVEC (assay: (§1) Tested for adhesion of neutrophils to human umbilical vein endothelial cell at the dose of 100 uM).
Assay type: functional, cell-based
COc1ccc2c(c1)C(OC(C)C)=C(C(N)=O)S2(=O)=O gave an Inhibition of under 4%.
COc1ccc2c(c1)c(OC(C)C)c(C(N)=O)[s+]2[O-] (stereo not drawn) showed an IC50 of 8.7 µM.
In the case of CC(C)Oc1c(C(N)=O)sc2ccc([N+](=O)[O-])cc12, the Inhibition is reported as 40%.
CC(C)Oc1c(C(N)=O)sc2ccc(O)cc12 gave an IC50 of 6.4 µM.
CNC(=O)c1sc2ccc(OC)cc2c1OC(C)C was tested, and the IC50 was 15 µM.

These compounds were tested on HUVEC (assay: as §1).
Assay type: functional
CC(C)Oc1c(C(N)=O)sc2ccccc12 was tested, and the inhibition at 100 µM was 60%.
COc1ccc2sc(C(N)=O)c(OC(C)(C)C)c2c1 was tested, and the inhibition at 100 µM was 97%.
In the case of Cc1ccc2sc(C(N)=O)c(OC(C)C)c2c1, the inhibition at 100 µM is reported as 61%.
CC(C)Oc1c(C(N)=O)sc2ccc(OCc3ccccc3)cc12 gave an inhibition at 100 µM of under 4%.
CCNC(=O)c1sc2ccc(OC)cc2c1OC(C)C was tested, and the inhibition at 100 µM was 64%.
COc1ccc2sc(C(N)=O)c(OC)c2c1 showed an inhibition at 100 µM of 60%.
For COc1cccc2c(OC(C)C)c(C(N)=O)sc12, the inhibition at 100 µM was 35%.
With COc1ccc2sc(C(=O)Nc3ccccc3)c(OC(C)C)c2c1 the inhibition at 100 µM was 12%.
With COc1ccc2sc(C(N)=O)c(Oc3ccccc3)c2c1 the inhibition at 100 µM was 59%.
In the case of CC(C)Oc1c(C(N)=O)sc2ccc(N)cc12, the inhibition at 100 µM is reported as 49%.
In the case of CC(C)Oc1c(C(N)=O)sc2ccc(Cl)cc12, the inhibition at 100 µM is reported as 72%.
COc1ccc2c(OC(C)C)c(C(N)=O)sc2c1 showed an inhibition at 100 µM of 24%.
In the case of COc1ccc2sc(C(N)=O)c(OCc3ccccc3)c2c1, the inhibition at 100 µM is reported as 57%.
